Columns and labels:
[1] = test system: HCV replicon (BB7 sequence) in Huh-7-Clone A cells; assay: HCV replicon assay: ELISA of NS5A protein in replicon-containing cells (Inhibition of Viral RNA Replication); type: cell-based; conditions: Hepatitis C virus; HCV replicon assay; ranges of EC50; read-out: Replicon
Outline: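 EC50 taken from an 8-point serially diluted dose curve, with NS5A level as read-out: fixed cells probed with primary monoclonal and HRP-conjugated secondary, TMB developed 30 min, OD 650 nm. Compound exposure 72 h in Huh-7-Clone A replicon cells (BB7 sequence).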

HCV NS5B = target: T1, HCV NS5B (Hepatitis C virus genotype 1b, UniProt Q9WMX2); assay: Inhibition of viral RNA-dependent RNA polymerase (RdRp), in vitro biochemical assay; design: species or system HCV genotype 1b virus (BB7); conditions: HCV NS5B RdRp, BB7; class symbols A-D; read-out: HCV pol-BB7 IC50
T1 construct: fusion protein, of which the carboxyl terminal 21 amino acids were removed to enhance its solubility; His tag (GSHHHHHH); made in house; host or cells: E. coli
Outline: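 IC50 values are the concentrations that halve in vitro RNA synthesis by HCV NS5B polymerase. The enzyme was a C-terminally truncated (Δ21), His-tagged genotype 1b (BB7 consensus) protein purified from E. coli.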

| SMILES | EC50 [1] | IC50 (HCV NS5B) |
| --- | --- | --- |
| CNC(=O)c1c(-c2ccc(F)cc2)oc2cc(N(Cc3ccc(C(=O)OC)cc3)S(C)(=O)=O)c(OC(C)C)cc12 [Example 270, 4-({[2-(4-Fluoro-phenyl)-5-isopropoxy-3-methylcarbamoyl-benzofuran-6-yl]-methanesulfonyl-amino}-methyl)-benzoic acid methyl ester] | < 1000 nM | ≤ 500 nM |
| CNC(=O)c1c(-c2ccc(F)cc2)oc2cc(N(Cc3csc(C)n3)S(C)(=O)=O)c(OC(C)C)cc12 [Example 271, 2-(4-Fluoro-phenyl)-5-isopropoxy-6-[methanesulfonyl-(2-methyl-thiazol-4-ylmethyl)-amino]-benzofuran-3-carboxylic acid methylamide] | < 10000 nM | ≤ 500 nM |
| CNC(=O)c1c(-c2ccc(F)cc2)oc2cc(N(Cc3ccc(C(=O)O)cc3)S(C)(=O)=O)c(OC(C)C)cc12 [Example 272, 4-({[2-(4-Fluoro-phenyl)-5-isopropoxy-3-methylcarbamoyl-benzofuran-6-yl]-methanesulfonyl-amino}-methyl)-benzoic acid] | ≤ 1000 nM | ≤ 500 nM |
| CNC(=O)c1c(-c2ccc(F)cc2)oc2cc(-c3cc(COC)on3)c(OC(C)C)cc12 [Example 273, 2-(4-Fluoro-phenyl)-5-isopropoxy-6-(5-methoxymethyl-isoxazol-3-yl)-benzofuran-3-carboxylic acid methylamide] | < 1000 nM | ≤ 500 nM |
| CNC(=O)c1c(-c2ccc(F)cc2)oc2cc(-c3cc(C4CC4)on3)c(OC(C)C)cc12 [Example 274, 6-(5-Cyclopropyl-isoxazol-3-yl)-2-(4-fluoro-phenyl)-5-isopropoxy-benzofuran-3-carboxylic acid methylamide] | < 1000 nM | ≤ 500 nM |
| CNC(=O)c1c(-c2ccc(F)cc2)oc2cc(C3CCCN3S(C)(=O)=O)c(OC(C)C)cc12 (stereo not drawn) [Example 275, 2-(4-Fluoro-phenyl)-5-isopropoxy-6-(1-methanesulfonyl-pyrrolidin-2-yl)-benzofuran-3-carboxylic acid methylamide] | < 1000 nM | ≤ 500 nM |
| CNC(=O)c1c(-c2ccc(F)cc2)oc2cc(C(C)=O)c(O)cc12 [Example 276, 6-Acetyl-2-(4-fluoro-phenyl)-5-hydroxy-benzofuran-3-carboxylic acid methylamide] | < 10000 nM | 500 to 5000 nM |
| CCN(c1cc2oc(-c3ccc(F)cc3)c(C(=O)NC)c2cc1OC)S(C)(=O)=O [Example 277, 6-(Ethyl-methanesulfonyl-amino)-2-(4-fluoro-phenyl)-5-methoxy-benzofuran-3-carboxylic acid methylamide] | < 1000 nM | ≤ 500 nM |
| CNC(=O)c1c(-c2ccc(F)cc2)oc2cc(C3CNC(=O)C3C(=O)NC)c(OC)cc12 (stereo not drawn) [Example 278, 4-[2-(4-Fluoro-phenyl)-5-methoxy-3-methylcarbamoyl-benzofuran-6-yl]-2-oxo-pyrrolidine-3-carboxylic acid methylamide] | < 10000 nM | ≤ 500 nM |
| CNC(=O)c1c(-c2ccc(F)cc2)oc2cc(-c3nnc[nH]3)c(OC(C)C)cc12 [Example 279, 2-(4-Fluoro-phenyl)-5-isopropoxy-6-(4H-[1,2,4]triazol-3-yl)-benzofuran-3-carboxylic acid methylamide] | < 30000 nM | ≤ 500 nM |
| CNC(=O)c1c(-c2ccc(F)cc2)oc2cc(-c3c(C)noc3COC)c(OC)cc12 [Example 280, 2-(4-Fluoro-phenyl)-5-methoxy-6-(5-methoxymethyl-3-methyl-isoxazol-4-yl)-benzofuran-3-carboxylic acid methylamide] | < 1000 nM | ≤ 500 nM |
| CNC(=O)c1c(-c2ccc(F)cc2)oc2cc(N(Cc3ccc(OC)cc3)S(C)(=O)=O)c(OC(C)C)cc12 [Example 281, 2-(4-Fluoro-phenyl)-5-isopropoxy-6-[methanesulfonyl-(4-methoxy-benzyl)-amino]-benzofuran-3-carboxylic acid methylamide] | < 1000 nM | ≤ 500 nM |
